Data from US12060347B2 (BRISTOL-MYERS SQUIBB COMPANY, priority 2016, dated 2024).

Each compound was assayed against T1, human PAR4 (Homo sapiens, UniProt Q96RI0) (assay: PAR4 FLIPR assay: antagonism of agonist-peptide-induced calcium mobilization in PAR4-expressing HEK293 cells). Conditions: H-Ala-Phe(4-F)-[…]NH2-induced intracellular calcium mobilization, 11-point curves.
T1 construct: expressed in transfected cells; host or cells: HEK293 PAR4 Clone 1.2A (BMS Arctic ID 383940)
T1 sequence (Q96RI0 18-385): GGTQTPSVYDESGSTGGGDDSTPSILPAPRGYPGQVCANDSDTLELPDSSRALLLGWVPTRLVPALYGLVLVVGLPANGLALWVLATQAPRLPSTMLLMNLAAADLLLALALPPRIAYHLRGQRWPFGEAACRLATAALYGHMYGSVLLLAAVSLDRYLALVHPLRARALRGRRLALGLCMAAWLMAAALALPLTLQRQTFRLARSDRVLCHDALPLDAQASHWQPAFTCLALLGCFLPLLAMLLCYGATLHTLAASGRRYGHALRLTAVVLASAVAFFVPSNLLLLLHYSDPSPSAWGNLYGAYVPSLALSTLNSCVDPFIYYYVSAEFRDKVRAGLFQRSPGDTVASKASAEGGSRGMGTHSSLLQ
Format: cell-based
Work on COc1cnc2c(-c3nc4cc(F)c(OC[C@@H](C)OC(=O)Nc5ccc(C(=O)NC[C@H](C)O)nc5)nc4s3)cc(C)cc2n1 [Example 748, (R)-1-((6-fluoro-2-(2-methoxy-7-methylquinoxalin-5-yl)thiazolo[5,4-b]pyridin-5-yl)oxy) propan-2-yl (6-(((S)-2-hydroxypropyl)carbamoyl)pyridin-3-yl)carbamate] yielded an IC50 of 2.9 nM. With COc1cnc2c(-c3nc4cc(F)c(OC[C@@H](C)OC(=O)Nc5cnc(C(N)=O)nc5)nc4s3)cc(C)cc2n1 [Example 749, (R)-1-((6-fluoro-2-(2-methoxy-7-methylquinoxalin-5-yl)thiazolo[5,4-b]pyridin-5-yl)oxy) propan-2-yl (2-carbamoylpyrimidin-5-yl)carbamate] the IC50 was 4.3 nM. With COc1cnc2c(-c3nc4cc(F)c(O[C@@H](C)[C@@H](C)OC(=O)Nc5ccc(C(=O)NC[C@H](C)O)nc5)nc4s3)cc(C)cc2n1 [Example 750, (2R,3S)-3-((6-fluoro-2-(2-methoxy-7-methylquinoxalin-5-yl)thiazolo[5,4-b]pyridin-5-yl)oxy)butan-2-yl (6-(((S)-2-hydroxypropyl)carbamoyl)pyridin-3-yl)carbamate] the IC50 was 1.1 nM. For COc1cnc2c(-c3nc4cc(F)c(O[C@@H](C)[C@@H](C)OC(=O)Nc5cnc(C(=O)NCC(C)(C)O)nc5)nc4s3)cc(C)cc2n1 [Example 751, (2R,3S)-3-((6-fluoro-2-(2-methoxy-7-methylquinoxalin-5-yl)thiazolo[5,4-b]pyridin-5-yl)oxy)butan-2-yl (2-((2-hydroxy-2-methylpropyl)carbamoyl)pyrimidin-5-yl)carbamate], the IC50 was 4.7 nM. For COc1cnc2c(-c3nc4cc(F)c(O[C@@H](C)[C@@H](C)OC(=O)Nc5cnc(C(=O)NC[C@@H](C)O)nc5)nc4s3)cc(C)cc2n1 [Example 752, (2R,3S)-3-((6-fluoro-2-(2-methoxy-7-methylquinoxalin-5-yl)thiazolo[5,4-b]pyridin-5-yl)oxy)butan-2-yl (2-(((R)-2-hydroxypropyl)carbamoyl)pyrimidin-5-yl)carbamate], the IC50 was 14 nM. Work on COc1cnc2c(-c3nc4cc(F)c(O[C@@H](C)[C@@H](C)OC(=O)Nc5cnc(C(=O)NC[C@H](C)O)nc5)nc4s3)cc(C)cc2n1 [Example 753, (2R,3S)-3-((6-fluoro-2-(2-methoxy-7-methylquinoxalin-5-yl)thiazolo[5,4-b]pyridin-5-yl)oxy)butan-2-yl (2-(((S)-2-hydroxypropyl)carbamoyl)pyrimidin-5-yl)carbamate] yielded an IC50 of 12 nM. COc1cnc2c(-c3nc4cc(F)c(O[C@@H](C)[C@@H](C)OC(=O)Nc5ccc(C(N)=O)nc5)nc4s3)cc(C)cc2n1 [Example 754, (2R,3S)-3-((6-fluoro-2-(2-methoxy-7-methylquinoxalin-5-yl)thiazolo[5,4-b]pyridin-5-yl)oxy)butan-2-yl (6-carbamoylpyridin-3-yl)carbamate] showed an IC50 of 0.3 nM. Compound COc1cnc2c(-c3nc4cc(F)c(O[C@@H](C)[C@@H](C)OC(=O)Nc5cnc(C(N)=O)nc5)nc4s3)cc(C)cc2n1 [Example 755, (2R,3S)-3-((6-fluoro-2-(2-methoxy-7-methylquinoxalin-5-yl)thiazolo[5,4-b]pyridin-5-yl)oxy)butan-2-yl (2-carbamoylpyrimidin-5-yl)carbamate] has an IC50 of 0.3 nM. COc1cnc2c(-c3nc4c(C)cc(OCCNS(=O)(=O)c5ccc(C)cc5)nc4s3)cc(C)cc2n1 [Example 762, N-(2-((2-(2-methoxy-7-methylquinoxalin-5-yl)-7-methylthiazolo[5,4-b]pyridin-5-yl)oxy)ethyl)-4-methylbenzenesulfonamide] was tested, and the IC50 was 1.4 nM. COCc1cnc2c(-c3nc4c(C)c(F)c(OC)nc4s3)cc(C)cc2n1 [Example 763, 6-fluoro-5-methoxy-2-(2-(methoxymethyl)-7-methylquinoxalin-5-yl)-7-methylthiazolo[5,4-b]pyridine] was tested, and the IC50 was 4 nM. With COc1cnc2c(-c3nc4cc(F)c(O[C@@H](C)[C@@H](C)OC(=O)Nc5cnc(CO)nc5)nc4s3)cc(C)cc2n1 [Example 764, (2R,3S)-3-((6-fluoro-2-(2-methoxy-7-methylquinoxalin-5-yl)thiazolo[5,4-b]pyridin-5-yl)oxy)butan-2-yl (2-(hydroxymethyl)pyrimidin-5-yl)carbamate] the IC50 was 1.7 nM. In the case of COc1cnc2c(-c3nc4cc(F)c(O[C@@H](C)[C@@H](C)OC(=O)Nc5ccc(C(C)(C)O)nc5)nc4s3)cc(C)cc2n1 [Example 765, (2R,3S)-3-((6-fluoro-2-(2-methoxy-7-methylquinoxalin-5-yl)thiazolo[5,4-b]pyridin-5-yl)oxy)butan-2-yl (6-(2-hydroxypropan-2-yl)pyridin-3-yl)carbamate], the IC50 is reported as 0.8 nM. With COc1cnc2c(-c3nc4cc(F)c(OC[C@@H](C)OC(=O)Nc5cnc(CO)nc5)nc4s3)cc(C)cc2n1 [Example 768, (R)-1-((6-fluoro-2-(2-methoxy-7-methylquinoxalin-5-yl)thiazolo[5,4-b]pyridin-5-yl)oxy)propan-2-yl (2-(hydroxymethyl)pyrimidin-5-yl)carbamate] the IC50 was 10 nM. COc1cnc2c(-c3nc4cc(F)c(O[C@@H](C)[C@@H](C)OC(=O)Nc5cnc(C)nc5)nc4s3)cc(Cl)cc2c1 [Example 769, (2R,3S)-3-((2-(6-chloro-3-methoxyquinolin-8-yl)-6-fluorothiazolo[5,4-b]pyridin-5-yl)oxy)butan-2-yl (2-methylpyrimidin-5-yl)carbamate] was tested, and the IC50 was 3.2 nM. Work on COc1cnc2c(-c3nc4cc(F)c(OC[C@@H](C)OC(=O)Nc5cnc(C)nc5)nc4s3)cc(Cl)cc2c1 [Example 770, (R)-1-((2-(6-chloro-3-methoxyquinolin-8-yl)-6-fluorothiazolo[5,4-b]pyridin-5-yl)oxy)propan-2-yl (2-methylpyrimidin-5-yl)carbamate] yielded an IC50 of 1.9 nM. For COc1cnc2c(-c3nc4cc(F)c(O[C@@H](C)[C@@H](C)OC(=O)Nc5cnc(C)nc5)cc4s3)cc(F)cc2c1 [Example 772, (2R,3S)-3-((5-fluoro-2-(6-fluoro-3-methoxyquinolin-8-yl)benzo[d]thiazol-6-yl)oxy)butan-2-yl (2-methylpyrimidin-5-yl)carbamate], the IC50 was 1.5 nM. Work on COc1cnc2c(-c3nc4cc(F)c(O[C@@H](C)[C@@H](C)OC(=O)Nc5cnc(C)nc5)cc4s3)cc(CO)cc2c1 [Example 773] yielded an IC50 of 11 nM. Compound COc1cnc2c(-c3nc4cc(F)c(O[C@@H](C)[C@@H](C)OC(=O)Nc5cnc(OCCO)nc5)nc4s3)cc(Cl)cc2c1 [Example 774, (2R,3S)-3-((2-(6-chloro-3-methoxyquinolin-8-yl)-6-fluorothiazolo[5,4-b]pyridin-5-yl)oxy) butan-2-yl (2-(2-hydroxyethoxy)pyrimidin-5-yl)carbamate] has an IC50 of 1.2 nM. COc1cnc2c(-c3nc4cc(F)c(O[C@@H](C)[C@@H](C)OC(=O)Nc5cnc(OCCO)nc5)nc4s3)cc(C)cc2c1 [Example 775, (2R,3S)-3-((6-fluoro-2-(3-methoxy-6-methylquinolin-8-yl)thiazolo[5,4-b]pyridin-5-yl)oxy)butan-2-yl (2-(2-hydroxyethoxy)pyrimidin-5-yl)carbamate] was tested, and the IC50 was 0.8 nM. In the case of COc1cnc2c(-c3nc4cc(F)c(O[C@@H](C)[C@@H](C)OC(=O)Nc5cncc(F)c5)nc4s3)cc(Cl)cc2c1 [Example 776, (2R,3S)-3-((2-(6-chloro-3-methoxyquinolin-8-yl)-6-fluorothiazolo[5,4-b]pyridin-5-yl)oxy)butan-2-yl (5-fluoropyridin-3-yl)carbamate], the IC50 is reported as 2.5 nM. COc1cnc2c(-c3nc4cc(F)c(O[C@@H](C)[C@@H](C)OC(=O)Nc5ccc6[nH]c(=O)oc6c5)nc4s3)cc(Cl)cc2c1 [Example 777, (2R,3S)-3-((2-(6-chloro-3-methoxyquinolin-8-yl)-6-fluorothiazolo[5,4-b]pyridin-5-yl)oxy) butan-2-yl (2-oxo-2,3-dihydrobenzo[d]oxazol-6-yl)carbamate] was tested, and the IC50 was 8.6 nM. COc1cnc2c(-c3nc4cc(F)c(O[C@@H](C)[C@@H](C)OC(=O)Nc5ccnc(OCCC(C)(C)O)c5)nc4s3)cc(Cl)cc2c1 [Example 778, (2R,3S)-3-((2-(6-chloro-3-methoxyquinolin-8-yl)-6-fluorothiazolo[5,4-b]pyridin-5-yl)oxy) butan-2-yl (2-(3-hydroxy-3-methylbutoxy)pyridin-4-yl)carbamate] gave an IC50 of 3.4 nM. In the case of COc1cnc2c(-c3nc4cc(F)c(O[C@@H](C)[C@@H](C)OC(=O)Nc5ccc(OCCO)nc5)nc4s3)cc(Cl)cc2c1 [Example 779, (2R,3S)-3-((2-(6-chloro-3-methoxyquinolin-8-yl)-6-fluorothiazolo[5,4-b]pyridin-5-yl)oxy) butan-2-yl (6-(2-hydroxyethoxy)pyridin-3-yl)carbamate], the IC50 is reported as 3.3 nM. Compound COc1cnc2c(-c3nc4cc(F)c(O[C@@H](C)[C@@H](C)OC(=O)Nc5ccnc(OCCO)c5)nc4s3)cc(Cl)cc2c1 [Example 780, (2R,3S)-3-((2-(6-chloro-3-methoxyquinolin-8-yl)-6-fluorothiazolo[5,4-b]pyridin-5-yl)oxy) butan-2-yl (2-(2-hydroxyethoxy)pyridin-4-yl)carbamate] has an IC50 of 5 nM. COc1cnc2c(-c3nc4cc(F)c(O[C@@H](C)[C@@H](C)OC(=O)Nc5ccc(CCO)nc5)nc4s3)cc(Cl)cc2c1 [Example 781, (2R,3S)-3-((2-(6-chloro-3-methoxyquinolin-8-yl)-6-fluorothiazolo[5,4-b]pyridin-5-yl)oxy) butan-2-yl (6-(2-hydroxyethyl)pyridin-3-yl)carbamate] was tested, and the IC50 was 6 nM.
